The test system of experiment [1] is SNB-19. Briefly: NCI human tumor cell panel. The note with it: SNB-19, read-out: Log10 LC50 (converted).
Experiment [2] concerns NCI-H23. The experiment in a line: NCI human tumor cell panel. The note with it: NCI-H23, read-out: Log10 LC50 (converted).
Experiment [3] relates to SK-MEL-5. Briefly: NCI human tumor cell panel. The note with it: SK-MEL-5, read-out: Log10 LC50 (converted).
The test system of experiment [4] is COLO 205. Briefly: NCI human tumor cell panel. The following applies: for CC50: COLO 205, read-out: Log10 LC50 (converted).
In experiment [5] the test system is HOP-92. Briefly: NCI human tumor cell panel. The class given is cell-based. The following applies: HOP-92, read-out: Log10 LC50 (converted).
Experiment [6] concerns UACC-257. Briefly: NCI human tumor cell panel. The class given is cell-based. The note with it: UACC-257, read-out: Log10 LC50 (converted).
Experiment [7] deals with RXF-393. Briefly: NCI human tumor cell panel. The class given is cell-based. The following applies: RXF 393, read-out: Log10 LC50 (converted).
The subject of experiment [8] is T-47D. The experiment in a line: NCI human tumor cell panel. The class given is cell-based. The following applies: T47D, read-out: Log10 LC50 (converted).
Experiment [9] relates to MDA-MB-231/ATCC. Briefly: NCI human tumor cell panel. The class given is cell-based.
Experiment [10] has as its system SF-268. The experiment in a line: NCI human tumor cell panel. The class given is cell-based. The note with it: SF-268, read-out: Log10 LC50 (converted).
The subject of experiment [11] is CAKI-1. The experiment in a line: NCI human tumor cell panel. It counts as cell-based. The following applies: CAKI-1, read-out: Log10 LC50 (converted).
In experiment [12] the test system is OVCAR-8. The experiment in a line: NCI human tumor cell panel. The following applies: OVCAR-8, read-out: Log10 LC50 (converted).
Experiment [13] deals with MALME-3M. The experiment in a line: NCI human tumor cell panel. The following applies: for CC50: read-out: Log10 LC50 (converted).
The subject of experiment [14] is NCI-H226. The experiment in a line: NCI human tumor cell panel. The following applies: NCI-H226, read-out: Log10 LC50 (converted).
The subject of experiment [15] is HT29. The experiment in a line: NCI human tumor cell panel. The note with it: HT-29, read-out: Log10 LC50 (converted).
For experiment [16], the system named is SK-OV-3. Briefly: NCI human tumor cell panel. The note with it: SK-OV-3, read-out: Log10 LC50 (converted).
Experiment [17] relates to HL-60(TB). Briefly: NCI human tumor cell panel. The following applies: for CC50: HL-60, read-out: Log10 LC50 (converted); for IC (TGI): HL-60, read-out: Log10 TGI.
For experiment [18], the system named is human tumor cell line panels. The experiment in a line: NCI human tumor cell panel, whole-panel summary (mean graph) and lines without a row head. The note with it: for Log10 LC50, Delta / Log10 TGI, Delta / Log10 TGI, Range: whole panel.
Where [19] appears, read: MDA-MB-231, read-out: Log10 LC50, MDA-MB-231/ATCC (converted).

Read-outs that look alike come from different tables or passages of the source.

Usually LC50 stands for the concentration that kills 50% of the test population.

For `OCc1ccc(-c2ccc(-c3ccc[se]3)s2)[se]1`, the CC50 is more than 100 µM in experiment [1]; 91.2 µM in experiment [2]; more than 100 µM in experiment [3]; 66.1 µM in [4]; more than 100 µM in experiment [5]; 0.457 µM in experiment [6]. Moreover, the CC50 in experiment [7] is more than 100 µM; in experiment [8], more than 100 µM; in experiment [9] (MDA-MB-231, read-out: Log10 LC50, Breast Cancer (converted), MDA-MB-231/ATCC) it was more than 100 µM; in experiment [12], more than 100 µM; in [13] it was more than 100 µM; in experiment [14], 0.525 µM. The CC50 in [15], in [16] and in [17] was more than 100 µM in each case. Moreover, the IC (TGI) in experiment [4] (COLO 205, read-out: Log10 TGI) was 12.6 µM; in experiment [13] (read-out: Log10 TGI), more than 100 µM. The LC50 (concentration killing 50% of cells) in experiment [10] was more than 100 µM. Moreover, the 50% lethal concentration (LC50) in experiment [11] is 64.6 µM.
With `O=Cc1ccc(-c2ccc(-c3ccc(C=O)[se]3)s2)[se]1`, the CC50 was more than 100 µM in [1]; more than 100 µM in experiment [2]; more than 100 µM in experiment [3]; more than 100 µM in [4]; more than 100 µM in [5]; 6.92 µM in experiment [6]. Moreover, the CC50 in experiment [7] is more than 100 µM; in experiment [8], more than 100 µM; in experiment [9] (setting [19]) it was more than 100 µM; in experiment [12], more than 100 µM; in [13], more than 100 µM; in [14], 2.45 µM. In addition, the CC50 in experiment [15], in experiment [16] and in experiment [17] was more than 100 µM in each case. The LC50 (concentration killing 50% of cells) in experiment [10] is more than 100 µM. In experiment [11], the 50% lethal concentration (LC50) is more than 100 µM. The IC (TGI) in experiment [17] was more than 100 µM. For the same compound, the “Log10 LC50, Delta” value in [18] is given as -4.07. Moreover, in [18], the “Log10 TGI, Delta” value is listed as -4.17. Moreover, the “Log10 TGI, Range” value in experiment [18] came to 2.18.
Regarding `O=Cc1ccc(-c2ccc(-c3ccc(C=O)s3)[se]2)s1`, the CC50 is more than 100 µM in experiment [1]; more than 100 µM in experiment [2]; more than 100 µM in experiment [3]; more than 100 µM in experiment [4]; more than 100 µM in [5]; 5.75 µM in experiment [6]. Also, the CC50 is more than 100 µM in [7]; more than 100 µM in [8]; more than 100 µM in [9] (setting [19]); more than 100 µM in experiment [12]; more than 100 µM in experiment [13]; 8.51 µM in experiment [14]. Moreover, the CC50 in experiment [15], in [16] and in [17] was more than 100 µM throughout. Moreover, in experiment [10], the LC50 (concentration killing 50% of cells) was more than 100 µM. For the same compound, the 50% lethal concentration (LC50) in experiment [11] is more than 100 µM. In experiment [17], the IC (TGI) is more than 100 µM. The “Log10 LC50, Delta” value in [18] is -4.07. Moreover, the “Log10 TGI, Delta” value in [18] was -4.21. In addition, the GI50 in [18] (Homo sapiens, read-out: Log10 GI50, Delta, Delta, whole panel (converted)) was 17.8 µM. The “Log10 TGI, Range” value in experiment [18] was 1.61.

These data come from patent EP1021178B1, “SELENOPHENE ANTI-TUMOR AGENTS” (Purdue Research Foundation, priority 1996, dated 1997).
